According to patent publication US7214495B2, “Screening method” (Takeda Pharmaceutical Company Limited, priority 2002, dated 2007):

Key:
human-derived GPR40 = biological target: T1, human-derived GPR40 (Homo sapiens, UniProt O14842); assay: Intracellular calcium change (FLIPR) in CHO-K1 cells transiently expressing GPR40; format: cell-based; conditions: added in 10^−5 M to 10^−6 M; no response in vector-only control cells
T1 construct: The DNA fragment encoding human GPR40 was acquired by the following PCR procedures; expressed in transfected cells; host or cells: CHO-K1 (transient, Lipofectamine)
T1 sequence (O14842 whole entry, the tested form may be a part): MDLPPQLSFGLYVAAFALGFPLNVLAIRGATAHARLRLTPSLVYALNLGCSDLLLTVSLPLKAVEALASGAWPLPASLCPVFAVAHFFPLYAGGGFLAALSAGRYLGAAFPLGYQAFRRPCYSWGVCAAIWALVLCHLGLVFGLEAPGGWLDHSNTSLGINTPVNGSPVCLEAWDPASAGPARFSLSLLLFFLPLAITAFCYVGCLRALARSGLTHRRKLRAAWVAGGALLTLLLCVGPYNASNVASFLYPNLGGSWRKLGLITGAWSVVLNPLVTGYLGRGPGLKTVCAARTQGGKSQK
Procedure: The CHO-K1 cell line was cultured in HAM F-12 medium (Invitrogen) containing 10% fetal calf serum (Invitrogen), unless otherwise indicated. One day before transfection, 4.5×10^5 cells per 10 cm^2 were plated, followed by incubation in a CO2 incubator adjusted to a concentration of 5% CO2 at 37° C. for at least 15 hours. Using Lipofectamine reagent (Invitrogen), transfection procedures were carried out by modifications of the method attached to the reagent. When a 6-well plate was used for the incubator, the following procedures were performed. First, 2 tubes each having a 1.5 ml volume were prepared and 100 μl each of Opti-MEM-I medium (Invitrogen) was dispensed in each tube. Next, 1 μg of the expression vector was charged in one tube and in another tube, 6 μl of Lipofectamine reagent was charged, which were mixed together. The mixture was settled for 20 minutes at room temperature. To the solution, 800 μl of Opti-MEM-I medium was added and the resulting solution mixture for transfection was added to CHO-K1 cells, which had been previously washed with Opti-MEM-I medium. Then, the cells were incubated in a CO2 incubator for 6 hours. After the incubation, the cells were rinsed with PBS (Invitrogen), then scraped using 0.05% trypsin-EDTA solution (Invitrogen) and recovered by centrifugal operation. The cells obtained were counted and diluted to 5×10^4 cells per 200 μl of the medium. The dilution was dispensed onto a Black walled 96-well plate (Costar) in 200 μl each per well, followed by incubation overnight in a CO2 incubator. Various test samples were added to the CHO-K1 cells in which the receptor was transiently expressed by the transfection operation described above, whereby changes in the intracellular calcium ion level were determined using FLIPR (Molecular Device). In order to determine the changes in the intracellular calcium ion level on FLIPR, the cells were pre-treated by the following procedures. First, for the purpose of adding a fluorescent dye Fluo-3 AM (DOJIN) to the cells or washing the cells immediately before the FLIPR assay, an assay buffer was prepared. A solution obtained by adding 20 ml of 1M HEPES (pH 7.4) (DOJIN) to 1000 ml of HBSS (Invitrogen) was prepared (hereinafter HBSS/HEPES solution), to which 10 ml of a solution mixture obtained by dissolving 710 mg of Probenecid (Sigma) in 5 ml of 1N NaOH and further adding 5 ml of HBSS/HEPES solution was added. The resulting solution was used as the assay buffer. Next, 50 μg of Fluo-3AM was dissolved in 21 μl of DMSO (DOJIN) and an equal volume of 20% Pulronic acid (Molecular Probes) was added to and mixed with the solution. The mixture was then added to 10.6 ml of the assay buffer supplemented with 105 μl of fetal calf serum to prepare a fluorescent dye solution. The medium for the transfection-treated CHO-K1 cells was removed. Immediately thereafter, the fluorescent dye solution was dispensed in 100 μl each/well and the cells were incubated in a CO2 incubator for an hour so that the fluorescent dye was taken up into the cells. The cells after the incubation was washed with the assay buffer described above and set on FLIPR. A test sample added to the receptor-expressed CHO-K1 cells was prepared using the assay buffer and set on FLIPR at the same time. After various test samples were added thereto.
Following the pre-treatment above, changes in intracellular calcium level after addition of various test samples were measured on FLIPR.

MIN6 cells = assay: FLIPR intracellular calcium assay using MIN6; format: cell-based, mouse; conditions: 10 μM fatty acid
Procedure: Mouse pancreatic β cell line MIN6 incubated in a flask was scraped using PBS containing 2.5 mM EDTA and diluted so as to contain 3×10^5 cells/1 mL of the medium. The dilution was dispensed in a Black welled 96-well plate (Coster) in 100 μL/well, followed by incubation in a CO2 incubator for 2 days. The medium used was 4.5 g/l of glucose-containing Dulbecco's Modified Eagle Medium (DMEM, Invitrogen, Inc.) supplemented with 15% fetal calf serum (ThermoTrace, Inc.), 5.5 μM 2-mercaptethanol (Invitrogen, Inc.), 20 mM HEPES pH 7.3, 100 U/ml penicillin and 100 μg/ml streptomycin. To the thus prepared MIN6 cells, various fatty acids (10 μM) were added and the changes in intracellular calcium level in this case were measured using FLIPR (Molecular Device). The changes in the intracellular calcium ion level on FLIPR were assayed in accordance with the procedures described in EXAMPLE 24.

Mouse GPR40 = biological target: T2, Mouse GPR40 (Mus musculus, UniProt Q76JU9); assay: cAMP production in mouse GPR40-expressed CHO cells; format: cell-based; conditions: 10 minutes; for cAMP production activity, presence of forskolin: 2 μM forskolin
T2 construct: expressed in transfected cells
T2 sequence (Q76JU9 whole entry): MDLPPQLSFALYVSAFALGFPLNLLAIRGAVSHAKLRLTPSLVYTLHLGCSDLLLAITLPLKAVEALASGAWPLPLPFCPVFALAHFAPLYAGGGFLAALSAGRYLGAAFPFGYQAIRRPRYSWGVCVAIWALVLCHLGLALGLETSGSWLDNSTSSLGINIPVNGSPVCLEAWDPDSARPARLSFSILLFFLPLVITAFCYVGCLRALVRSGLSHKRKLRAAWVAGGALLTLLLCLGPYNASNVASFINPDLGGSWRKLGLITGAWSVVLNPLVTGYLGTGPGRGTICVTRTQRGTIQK
Procedure: Human and mouse GPR40-expressed CHO cells were incubated for 20 hours in a 96-well Plate at a density of 1×10^5/well. After the cells were washed twice with 100 μl of Assay Buffer (DMEM (Invitrogen) containing 0.1 mM IBMX (Wako Pure Chemical) and 0.1 mM Ro-20-1724 (Biomol)), DHA, solutions of linoleic acid and […] (both by SIGMA) in Assay Buffer in the presence or absence of 2 μM forskolin (Wako Pure Chemical) were added to the cells, followed by reacting at 37° C. for 10 minutes. After the reaction, the cells were lysed in accordance with the formulation of cAMP Screen (ABI) and the cAMP level in the cells was assayed.

Compound	response (increase in intracellular calcium level) of GPR40-expressing CHO-K1 cells (human-derived GPR40)	intracellular Ca^2+ level in MIN6 (MIN6 cells)	cAMP production activity, presence of forskolin (Mouse GPR40)	cAMP production activity, absence of forskolin (Mouse GPR40)
CC/C=C\C/C=C\C/C=C\C/C=C\C/C=C\C/C=C\CCC(=O)O [Docosahexaenoic acid (C22:6), 4Z,7Z,10Z,13Z,16Z,19Z-docosahexaenoic acid]	specifically responsive	increased	no activity was shown	did not show any cAMP production activity
CCCCC/C=C\C/C=C\C/C=C\C/C=C\CCCC(=O)O [Arachidonic acid (C20:4), Arachidonic acid]	specifically responsive	increased		
CCCCCCCC/C=C\CCCCCCCC(=O)O [Oleic acid (C18:1), Oleic acid]	specifically responsive	increased		
CCCCC/C=C\C/C=C\CCCCCCCC(=O)O [Linoleic acid (C18:2), Linoleic acid]	specifically responsive	increased	no activity was shown	did not show any cAMP production activity
CCCCC/C=C\C/C=C\C/C=C\CCCCC(=O)O [γ-Linolenic acid (C18:3), γ-Linolenic acid]		increased	no activity was shown	did not show any cAMP production activity
